The text below walks through data of patent US20140288010A1, “Compositions and Methods for Increasing Stem Cell Survival” (Georgia Regents Research Institute, Inc., priority 2013, published 2014).

Assay [1] has as its system Smad1/5/8-mediated BMP-2 signal transduction. Kind of assay: BMP receptor signaling by Western blot ((p)Erk1/2, (p)Smad1/5/8) in BMSCs. To be noted: for effect of pretreatment on SDF-1β potentiation of BMP-2 signal transduction: pretreatment 4 h, 600 μM AMD3100 or 50 μM U0126, before 300 ng/ml BMP-2. It counts as cell-based, mouse. The source says: FIGS. 17A and 17D are images of autoradiograms of western blots detecting pErk 1/2, Erk1/2, pSmad 1/5/8, Smad 1/5/8, and beta-actin (loading control) of isolated BMSC cells: Tet-Off-SDF-1β with and without Dox, BMP2, AMD3100, U0126, and combinations thereof (FIG. 17A) and Tet-Off-EV controls with and without Dox, BMP2, AMD3100, U0126, and combinations thereof (FIG. 17D). FIGS. 17B-C and 17E-F are bar graphs showing densitometry quantification of immunoreactive bands of FIGS. 17A and 17D as a ratio of pErk 1/2 to Erk1/2 (17B and 17E) and pSmad 1/5/8 to Smad 1/5/8 (17C and 17F).
(§1) BMP receptor signaling was assessed by Western blot. Serum-starved BMSCs were pretreated with 600 μM AMD3100, 50 μM U0126, or vehicle for 4 h prior to stimulation with 300 ng/ml BMP-2 for 30 min. Whole cell lysates were subjected to SDS-PAGE, electroblotted onto PVDF membranes, and probed for (p)Erk1/2 and (p)Smad1/5/8. Transwell migration assays were performed using conditioned media from genetically engineered BMSCs in lower chambers. Serum-starved Jurkat cells or BMSCs at 5.0-8.0×10^5 cells/ml in upper chambers were allowed to migrate across the 8-μm membranes for 4-8 h prior to quantifying total DNA with CyQuant GR dye at 485/535 nm. Apoptosis was induced with 1.0 mM H2O2 for 6 h. Cell death was quantified by trypan blue staining and Western blot analysis of cleaved caspase-3 and PARP. Autophagy was evaluated by Western blot for LC3-II.

Assay [2] relates to 18 month MSCs. As to the kind of experiment: Osteogenic differentiation of MSCs, Alizarin red staining for calcium deposition. To be noted: for increase of Alizarin red staining for calcium compared to control cells: osteogenic differentiation of MSCs, terminal stages. It counts as cell-based, mouse. The source says:
(§2) Low passage MSCs from 18 and 24 month old adult male C57BL/6 mice, procured from the GHSU Institute of Regenerative and Reparative Medicine Stem Cell Core (IRRM-SSC) were used. This age range was chosen based on associated changes in bone formation and mass in the comparatively aged mice (Zhang, et al., Journal of Bone and Mineral Research, 23:1118-1128 (2008)).
To determine the influence of modulating SDF-1 signaling in osteogenic differentiation of 18 month MSCs, the calcium deposition at the terminal stages of differentiation was measured. […] However, the SDF-1β stimulated calcium-staining was reduced by ˜8 fold (FIG. 9B) with co-treatment with C1.SDF-10.

The test system of assay [3] is 18 month MSCs. Kind of assay: Transwell migration of 18 month MSCs. It is filed as cell-based, mouse. To be noted: 6 hours treatment.
Text: The data shown are averages of quadruplicate wells. Bar graph represents RFU of migrated cells normalized to vehicle control group +/−SEM. *p<0.05 verse control group.
as §2
(§3) Recombinant active SDF-1β (i.e. full length amino acids 1-72; 100 ng/mL; Peprotech), Recombinant Mouse DPPIV/CD26 enzyme (0.01 μg; R&D) cleaved (Cl.) SDF-1β (aa3-72; 100 ng/mL) (Christopherson, et al., Blood, 101:4680-4686 (2003)), and AMD3100 (400 μM; R&D), an antagonist of SDF-1/CXCR4 axis (Liu, et al., Protein & Cell, 2:845-854 (2011)).
The migration efficiency of 18 month MSCs in response to SDF-1β, its cleaved form and AMD3100, as a positive control, was tested using a transwell migration system.

Assay [4] has as its system CXCR4-expressing Jurkat cells. As to the kind of experiment: Transwell migration toward conditioned media from genetically engineered BMSCs, Jurkat cells. It counts as cell-based. To be noted: 4-8 h, p<0.01. Here is the method: as §1
The next assay has as its system AMPK-α1 and LC3B. As to the kind of experiment: qRTPCR of AMPK-α1 and LC3B mRNA in MSCs. It is filed as cell-based, mouse. The following applies: 24 month MSCs; 100 ng/ml for 48 hours. How it is done:
FIG. 7 is bar graph showing the results of an assay measuring the level of AMPK-alpha1 and LC3B mRNA in 24 month MSCs control cells and cells treated with 100 ng/ml of active SDF-1β for 48 hours. *p<0.05 compared to control group.
as §2, §3
Background: Quantitative PCR measures a nucleic acid by following its amplification.

The test system of another assay is LC3B, p62, pERK. Kind of assay: Western blot of LC3B, p62 and pERK in aged MSCs (autophagy and MAPK pathway). It counts as cell-based, mouse. The source says:
Low passage MSCs from 18 and 24 month old adult male C57BL/6 mice, procured from the GHSU Institute of Regenerative and Reparative Medicine Stem Cell Core (IRRM-SSC) were used.
Redistribution of LC3B from cytosol (18 kDa) to an autophagosome (16 kDa) is an indication of autophagy induction. P62, also known as sequestosome 1/SQSTM1, is a ubiquitously expressed protein, best characterized for selective autophagy, directly interacts with LC3B on the phagophore through the LC3-interacting region and then degraded.
Background: Immunoblotting shows a protein as a band on a membrane.

Assay [5] relates to BMSCs. Kind of assay: Transwell migration toward conditioned media from genetically engineered BMSCs, BMSCs. It counts as cell-based, mouse. The following applies: 4-8 h, p<0.01. Here is the method: as §1
Assay [6] concerns BMSCs. Kind of assay: Cell viability after H2O2 treatment by trypan blue exclusion staining. It is filed as cell-based, mouse. To be noted: 1.0 mM H2O2 for 6 h; p<0.001. The source says: BMSCs were transduced with retroviral Tet-Off expression vectors. The sequential protocol of retrovirus production, two-step infection, and selection to generate double-stable Tet-Off-SDF-1β BMSCs and Tet-Off-EV control BMSCs has been described previously (Herberg, et al., Tissue Eng Part A, 19:1-13 (2013)). In brief, 293GPG packaging cells (Ory, et al., Proc. Natl. Acad. Sci. USA, 93:11400-11406 (1996)) were transfected at passage 8 with retroviral Tet-Off expression vectors containing the SDF-1β coding sequence, or empty control (cat#632105) (Clontech Laboratories, Mountain View, Calif., USA). […]
The viability of BMSCs in response to H2O2 treatment was analyzed using standard trypan blue exclusion staining Cells were washed with PBS, lifted with trypsin/EDTA, and resuspended with normal growth medium. Following 1:5 dilution, BMSC suspensions were mixed with an equal volume of 0.4% trypan blue staining solution (cat#15250061) (Gibco, Invitrogen), and counted in 5 inner squares using a hemacytometer with cover slip (Hausser Scientific, Horsham, Pa., USA).
BMP receptor signaling was assessed by Western blot. […] Serum-starved Jurkat cells or BMSCs at 5.0-8.0×10^5 cells/ml in upper chambers were allowed to migrate across the 8-μm membranes for 4-8 h prior to quantifying total DNA with CyQuant GR dye at 485/535 nm. […] Autophagy was evaluated by Western blot for LC3-II.

The target in a further assay is CXCR4 (Mus musculus, UniProt P70658). The following applies: BM supernatant of 3 or 18 month old mice normalized to 150 pg/ml SDF-1; both age groups. Here is the method:
BM supernatant from 3 or 18 month old mice were normalized by dilution with saline to yield 150 pg/ml of SDF-1 as determined by ELISA. The normalized BM supernatant was added to the lower chamber and the cells (either pretreated with AMD3100 or not) were permitted to migrate for 6 hours.

Another assay deals with SDF-1. As to the kind of experiment: qRTPCR of SDF1β, CXCR4 and LC3B mRNA in MSCs after metformin treatment. It counts as cell-based, mouse. To be noted: MSCs treated with metformin compared to controls.

Sequence of CXCR4 (P70658 whole entry): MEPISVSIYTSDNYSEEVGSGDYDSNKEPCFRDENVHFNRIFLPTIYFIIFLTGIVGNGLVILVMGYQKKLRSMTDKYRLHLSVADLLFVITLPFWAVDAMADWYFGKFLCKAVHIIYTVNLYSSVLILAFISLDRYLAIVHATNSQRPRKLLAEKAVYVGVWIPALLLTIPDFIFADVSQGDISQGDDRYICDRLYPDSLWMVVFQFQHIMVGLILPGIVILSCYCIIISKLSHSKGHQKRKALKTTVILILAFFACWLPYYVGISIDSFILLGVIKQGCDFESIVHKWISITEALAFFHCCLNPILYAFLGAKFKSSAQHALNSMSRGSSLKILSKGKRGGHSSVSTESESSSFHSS

Regarding `N#CC(=C(/N)Sc1ccccc1N)/C(C#N)=C(\N)Sc1ccccc1N` [U0126], the “effect of pretreatment on SDF-1β potentiation of BMP-2 signal transduction” value in [1] is listed as “abolished”.

Turning to `c1cc(-c2cnn3cc(-c4ccc(OCCN5CCCCC5)cc4)cnc23)ccn1` [Compound C], the “osteogenic differentiation of MSCs (Alizarin red staining)” value with 18 month MSCs [2] is listed as “significantly reduced”.

With “SDF-1β: Recombinant active SDF-1β, full length amino acids 1-72 (Peprotech); in Example 9 overexpressed in engineered BMSCs”, the “migration of MSCs in transwell migration system relative to control” value in the assay with 18 month MSCs [3] is “strong migrating potential”. The “migratory response of CXCR4-expressing Jurkat cells” value in assay [4] is listed as “significantly promoted”. Also, the “AMPK-α1 and LC3B mRNA (qRTPCR)” value in the assay with AMPK-α1 and LC3B is “regulated autophagy at transcriptional level”. Besides, the “LC3B and p62 levels on further incubation” value in the assay on LC3B, p62, pERK (18 month MSCs, 24 or 48 h, 100 ng/mL) is “gradual disappearance of LC3B and p62”. In addition, the “effect on MAPK pathway and autophagy (LC3B distribution)” value in the assay with LC3B, p62, pERK (18 month MSCs, six hours of treatment, 100 ng/mL) was “led to MAPK pathway activation and induced autophagy by distributing LC3B”. Also, the “migratory response of BMSCs” value with BMSCs [5] is “significantly promoted”. Moreover, the “increase of Alizarin red staining for calcium compared to control cells” value with 18 month MSCs [2] was roughly 20 fold. In addition, the “apoptosis-resistance in genetically engineered BMSCs” value in the assay with BMSCs [6] is on record as “significant apoptosis-resistance”. In addition, in assay [1] (SDF-1β overexpressed in genetically engineered BMSCs, 300 ng/ml BMP-2 for 30 min, p<0.05), the “Smad1/5/8-mediated BMP-2 signal transduction via Erk1/2 phosphorylation” value is “significantly potentiated”.

As to `c1cc(CN2CCCNCCNCCCNCC2)ccc1CN1CCCNCCNCCCNCC1` [AMD3100], the “migration of MSCs in transwell migration system relative to control” value with 18 month MSCs [3] is recorded as “suppressed”. Besides, the “migration of MSCs toward BM supernatant after pretreatment of the cells” value on CXCR4 is on record as “blocked all migration”. In addition, the “effect of pretreatment on SDF-1β potentiation of BMP-2 signal transduction” value in assay [1] is “abolished”.

Take `CN(C)C(=N)N=C(N)N` [metformin]: in the assay with LC3B, p62, pERK (18 month and 24 month old MSCs, 24 or 48 h of metformin treatment), the “LC3B and p62 levels on further incubation” value was “gradual reduction of LC3B and p62”. Besides, the “expression of endogenous SDF-1” value in the assay with SDF-1 is recorded as “increase expression of endogenous SDF-1”. In addition, the “increase of Alizarin red staining for calcium compared to control cells” value in the assay with 18 month MSCs [2] is roughly 20 fold.
